How the values were obtained:
Type in all cases: cell-based
Conditions in all cases: 72 h treatment, OD 540 nm, tested 5-100 µg/mL
[1] = test system: SKOV (ovarian cancer); assay: Cytotoxicity, MTT assay (viability), SKOV
[2] = test system: Jurkat (T-cell lymphoblastic leukemia); assay: Cytotoxicity, MTT assay (viability), Jurkat
[3] = test system: Mycobacterium smegmatis; assay: Cytotoxicity, MTT assay (viability), Mycobacterium smegmatis

Molecule	IC50 [1]	IC50 [2]	IC50 [3]
C=C(CCC=C(C)C)[C@@H]1CC[C@@]2(C)CCCC(C)=C2C1 [clavulatriene A]	not active	IC50 = 5.63 µg/ml.	not active
tetramethylhexadecahydropyrenol	IC50 = 35.38 µ g/ml	IC50 = 29. 35 µ g/ml µg/ml	IC50 = 49.78 µg/ml
trimethyl-methylenehexadecahydropyrene	not active	not active	IC50 = 50.08 µg/ml

— EP3034610A1, “NOVEL TERPENOID COMPOUND AND METHOD FOR PRODUCING SAME” (The Kitasato Institute, priority 2013, dated 2015)
